3 compounds from US9187463B2, “Polymorph form of 4-{[4-({[4-(2,2,2-trifluoroethoxy)-1,2-benzisoxazol-3-yl]oxy}methyl)piperidin-1-yl]methyl}-tetrahydro-2H-pyran-4-carboxylic acid” (RAQUALIA PHARMA INC., priority 2011, dated 2015) can be followed below.

Holding throughout (format): physicochemical
Data set [1] is described as follows: Solid-state stability study (temperature/humidity chamber, Xenon lamp). As to the method: Solid-state stability study is performed using Nagano Science Constant temperature/humidity control chamber LH-20-11M, LH-21-11M, LTL-200D3CJ-14 or LTX-01. The sample is placed in the chamber and exposed under 25° C./60% RH, 40° C./75% RH and/or irradiated with a Xenon lamp. The crystalline form, thermal behavior, purity and/or weight change of the resultant sample after the exposure or irradiation are evaluated by XRPD, TG/DTA or DSC, HPLC, microbalance analysis, respectively.

Data set [2] is described as follows: Hygroscopicity study by dynamic vapor sorption (DVS) analysis. Conditions: for weight gain %: 25° C., DVS sorption. As to the method:
Hygroscopicity study is performed using Surface Measurement Systems DVS-1. The sample is placed on a microbalance in the instrument. After the sample is dried under 0% humidity environment at 25° C., relative humidity is raised to 95% RH at 5% RH increments, maintaining the sample at each step until equilibration had been attained. After completion of the sorption cycle, the sample is dried to 10% RH using the same procedure (desorption cycle). The weight change during the sorption/desorption cycle is monitored, allowing for the hygroscopic nature of the sample to be determined.
In the hygroscopicity study by dynamic vapor sorption (DVS) analysis, Polymorph Form I absorbs less than 0.2 wt % under 90% relative humidity (RH) at 25° C. On the other hand, the white solid disclosed in the prior art WO2006/090224 absorbs 1.2 wt % and 5.5 wt % of water under 85% RH and 90% RH, respectively.

A short description of data set [3]: Thermal polymorph transformation monitored by variable-temperature PXRD. As to conditions: heating. As to the method:
The PXRD analyses are performed using a Rigaku RINT-TTR X-ray powder diffractometer using Cu-Kα radiation. The samples can also be measured under the high/low temperature condition by using the attachment of the variant-temperature sample holder. The instrument is equipped with a fine focus X-ray tube. The tube voltage and amperage are set to 50 kV and 300 mA respectively. The divergence and scattering slits are set at 0.25° and the receiving slit is set at 0.15 mm. Diffracted radiation is detected by a NaI scintillation detector. A theta-two theta continuous scan at 4°/min (step size 0.02°) from 3 to 40 2-Theta° is used. A silicon standard is analyzed to check the machine alignment. Data are collected and analyzed using-Rigaku X-ray system. Samples are prepared for analysis by placing them in an aluminum sample holder that is horizontally rotated at 60 rpm during data acquisition.
Polymorph Form I begins to transform to Polymorph Form II at around 110° C. […]

[4] abbreviates: 90% relative humidity (RH) at 25° C.

As to `O=C(O)C1(CN2CCC(COc3noc4cccc(OCC(F)(F)F)c34)CC2)CCOCC1` [Polymorph Form II, 4-{[4-({[4-(2,2,2-trifluoroethoxy)-1,2-benzisoxazol-3-yl]oxy}methyl)piperidin-1-yl]methyl}-tetrahydro-2H-pyran-4-carboxylic acid], the “stability compared with white solid of WO2006/090224” value in data set [1] is listed as “more stable than white solid”.
On to `O=C(O)C1(CN2CCC(COc3noc4cccc(OCC(F)(F)F)c34)CC2)CCOCC1` [White solid disclosed in the prior art WO2006/090224] [4-{[4-({[4-(2,2,2-Trifluoroethoxy)-1,2-benzisoxazol-3-yl]oxy}methyl)piperidin-1-yl]methyl}-tetrahydro-2H-pyran-4-carboxylic acid], for which the weight gain % in data set [2] (75% RH) came to 0.33%; in data set [2] (80% RH) it was 0.35%; in data set [2] (85% RH), 1.2%; in data set [2] (90% RH), 5.5%. Moreover, the “water absorbed (DVS)” value was 1.2 wt % in data set [2] (85% RH) and 5.5 wt % in data set [2] (setting [4]).
Consider `O=C(O)C1(CN2CCC(COc3noc4cccc(OCC(F)(F)F)c34)CC2)CCOCC1` [Polymorph Form I, 4-{[4-({[4-(2,2,2-trifluoroethoxy)-1,2-benzisoxazol-3-yl]oxy}methyl)piperidin-1-yl]methyl}-tetrahydro-2H-pyran-4-carboxylic acid], for which the “temperature at which transformation to Polymorph Form II begins” value in data set [3] was “around 110 °C”. Besides, the weight gain % is given as 0.15% in data set [2] (75% RH), 0.15% in data set [2] (80% RH), 0.15% in data set [2] (85% RH) and 0.18% in data set [2] (90% RH). Moreover, the “water absorbed (DVS)” value in data set [2] (setting [4]) is “less than 0.2 wt %”. In addition, the “stability compared with white solid of WO2006/090224” value in data set [1] is reported as “more stable than white solid”.
